Values of other authors, collected in US20250031694A1, “AGRICULTURAL CHEMICAL COMPOSITION AND METHOD FOR PRODUCING SAME” (MITSUI CHEMICALS CROP & LIFE SOLUTIONS, INC., priority 2021, published 2025).
In brackets after ≈: the same amount, converted by molar mass.

Settings: FAMIC agrochemical abstract

Row | SMILES | water solubility (20° C.) [mg/L] | water solubility (25° C.) [mg/L]
1 | CC(=O)Oc1c(C)c(C)nc2c(F)cc(C(C)(C)C)cc12 [tebufloquin] | 20.2 (≈ 69.8 µM) | –
2 | CCCOCCN(C(=O)CCl)c1c(CC)cccc1CC [pretilachlor] | – | 74 (≈ 237 µM)
3 | C=CCOC1=NS(=O)(=O)c2ccccc21 [probenazole] | 36.6 (≈ 164 µM) | –
4 | CN1COCN(Cc2cnc(Cl)s2)/C1=N\[N+](=O)[O-] [thiamethoxam] | – | 4100 (≈ 14100 µM)
